Measurements: patent US20090270435A1 (priority 2006, published 2009)
pIC50: −log10 of the molar value.

Columns and labels:
[1] = molecular target: T1, ACC2 from rat skeletal muscle (Rattus norvegicus, UniProt Q1HEC0); test: Direct inhibition of ACC2 activity (14C-bicarbonate incorporation); assay type: biochemical; conditions: ACC2 from rat skeletal muscle
T1 construct: The livers (for ACC1 preparation) or skeletal muscle tissue (for ACC2 preparation) are removed; from tissue; host or cells: skeletal muscle of male CD rats (fasted, then fed a high sucrose diet)
T1 sequence (Q1HEC0 17-2455): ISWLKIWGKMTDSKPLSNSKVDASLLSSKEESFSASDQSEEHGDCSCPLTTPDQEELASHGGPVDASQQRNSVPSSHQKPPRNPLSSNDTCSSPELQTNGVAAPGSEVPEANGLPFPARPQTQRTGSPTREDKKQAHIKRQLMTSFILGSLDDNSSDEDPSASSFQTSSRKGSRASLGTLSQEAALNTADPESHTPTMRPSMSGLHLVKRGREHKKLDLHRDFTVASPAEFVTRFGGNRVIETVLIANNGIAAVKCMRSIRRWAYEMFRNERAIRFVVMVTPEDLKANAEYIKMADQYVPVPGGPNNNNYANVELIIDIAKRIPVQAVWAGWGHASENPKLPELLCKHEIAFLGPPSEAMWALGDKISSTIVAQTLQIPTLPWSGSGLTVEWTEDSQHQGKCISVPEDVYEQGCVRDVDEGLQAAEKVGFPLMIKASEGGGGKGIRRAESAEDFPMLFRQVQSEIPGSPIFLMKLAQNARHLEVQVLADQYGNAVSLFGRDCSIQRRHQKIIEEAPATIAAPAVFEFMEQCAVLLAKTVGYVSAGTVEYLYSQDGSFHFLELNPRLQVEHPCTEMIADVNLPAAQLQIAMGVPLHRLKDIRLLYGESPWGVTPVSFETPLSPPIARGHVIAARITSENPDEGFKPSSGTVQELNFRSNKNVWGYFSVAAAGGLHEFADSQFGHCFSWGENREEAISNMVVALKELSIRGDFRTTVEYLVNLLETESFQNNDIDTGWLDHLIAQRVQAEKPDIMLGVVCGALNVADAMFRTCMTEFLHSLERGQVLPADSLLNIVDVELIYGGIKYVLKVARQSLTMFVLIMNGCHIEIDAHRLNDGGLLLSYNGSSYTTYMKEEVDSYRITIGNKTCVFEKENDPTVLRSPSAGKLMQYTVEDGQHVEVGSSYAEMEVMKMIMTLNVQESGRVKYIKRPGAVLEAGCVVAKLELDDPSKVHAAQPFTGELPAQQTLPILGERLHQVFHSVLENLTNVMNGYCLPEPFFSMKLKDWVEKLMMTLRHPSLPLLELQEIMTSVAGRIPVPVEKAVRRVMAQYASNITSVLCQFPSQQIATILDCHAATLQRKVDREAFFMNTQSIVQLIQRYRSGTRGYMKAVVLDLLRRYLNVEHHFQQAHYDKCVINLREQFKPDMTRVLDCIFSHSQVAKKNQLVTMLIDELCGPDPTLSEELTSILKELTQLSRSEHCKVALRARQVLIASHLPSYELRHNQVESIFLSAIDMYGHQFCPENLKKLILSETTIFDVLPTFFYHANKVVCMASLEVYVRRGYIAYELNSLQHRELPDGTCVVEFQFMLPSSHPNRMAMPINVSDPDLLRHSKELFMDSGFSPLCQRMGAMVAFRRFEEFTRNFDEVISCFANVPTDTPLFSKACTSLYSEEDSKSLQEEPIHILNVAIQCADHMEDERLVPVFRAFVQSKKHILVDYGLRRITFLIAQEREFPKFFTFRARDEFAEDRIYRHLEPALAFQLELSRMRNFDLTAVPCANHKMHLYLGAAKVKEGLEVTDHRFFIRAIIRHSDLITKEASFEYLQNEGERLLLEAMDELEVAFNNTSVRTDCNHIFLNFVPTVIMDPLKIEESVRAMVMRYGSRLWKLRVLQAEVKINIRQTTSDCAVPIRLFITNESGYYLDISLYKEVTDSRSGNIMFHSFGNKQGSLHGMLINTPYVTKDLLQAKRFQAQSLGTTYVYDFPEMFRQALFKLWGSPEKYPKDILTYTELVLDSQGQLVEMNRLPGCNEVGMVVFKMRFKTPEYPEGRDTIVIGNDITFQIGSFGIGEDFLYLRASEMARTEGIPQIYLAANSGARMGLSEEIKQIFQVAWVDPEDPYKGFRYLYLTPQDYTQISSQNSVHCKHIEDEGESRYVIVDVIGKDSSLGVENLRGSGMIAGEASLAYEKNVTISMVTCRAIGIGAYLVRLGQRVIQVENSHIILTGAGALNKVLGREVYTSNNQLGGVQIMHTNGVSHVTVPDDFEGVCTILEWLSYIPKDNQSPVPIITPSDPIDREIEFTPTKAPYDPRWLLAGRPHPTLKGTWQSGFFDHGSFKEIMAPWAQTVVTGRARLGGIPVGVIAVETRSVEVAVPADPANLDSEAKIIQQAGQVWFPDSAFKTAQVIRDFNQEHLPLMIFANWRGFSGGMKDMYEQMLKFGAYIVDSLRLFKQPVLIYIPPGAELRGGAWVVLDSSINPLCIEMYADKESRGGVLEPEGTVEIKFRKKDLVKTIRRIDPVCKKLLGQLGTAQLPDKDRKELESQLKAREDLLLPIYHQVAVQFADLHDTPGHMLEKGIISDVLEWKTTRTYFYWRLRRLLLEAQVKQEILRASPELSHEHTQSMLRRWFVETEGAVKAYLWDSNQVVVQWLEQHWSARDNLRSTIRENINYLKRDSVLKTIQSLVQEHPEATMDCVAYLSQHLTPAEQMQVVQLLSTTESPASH
Experimental: For example direct inhibition of ACC1 and ACC2 activity, for compounds of Formula (1) were determined using preparations of ACC1 from rat liver and ACC2 from rat skeletal muscle.
[1] Preparation of ACC1 and ACC2. ACC1 was obtained from rat liver and ACC2 was obtained from rat skeletal muscle based upon standard procedures such as those described by Thampy and Wakil (J. Biol. Chem. 260: 6318-6323; 1985) using the following method.
Male CD rats weighing 150-200 g are fasted for 2 days and then fed a high sucrose diet (AIN-76A rodent diet; Cat # D10001, Research Diets Inc., New Brunswick, N.J.), for 3 days at which time they are sacrificed by CO2 asphyxiation. The livers (for ACC1 preparation) or skeletal muscle tissue (for ACC2 preparation) are removed, rinsed in ice-cold phosphate-buffered saline (PBS), and homogenized in 5 volumes of homogenization buffer (50 mM potassium phosphate, pH 7.5, 10 mM EDTA, 10 mM 2-mercaptoethanol, 2 mM benzamidine, 0.2 mM phenylmethylsulfonylfluoride (PMSF), 5 mg/L each leupeptin, aprotinin, and antitrypsin) in a Waring® blender for 1 minute at 4° C. All subsequent operations are carried out at 4° C. The homogenate is made 3% with respect to polyethylene glycol (PEG) by the addition of 50% PEG solution and centrifuged at 20,000×g for 15 minutes. The resulting supernatant is adjusted to 5% PEG with the addition of 50% PEG solution and stirred for 5 minutes. The pellet (contains ACC activity) is collected by centrifugation at 20,000×g for 20 minutes, rinsed with Ice-cold doubly distilled water to remove excess PEG and re-suspended in one-fourth the original homogenate volume with homogenization buffer. Ammonium sulfate (200 g/liter) is slowly added with stirring. After 45 minutes the enzyme is collected by centrifugation for 30 minutes at 20,000×g, re-suspended in 10 ml of 50 mM HEPES, pH7.5, 0.1 mM DTT, 1.0 mM EDTA, and 10% glycerol and desalted on a Sephadex™ G-25 column (2.5 cm-x 50 cm) (Pharmacia, Piscataway N.J. now GE Healthcare) […] equilibrated with the same buffer. The desalted enzyme preparation is stored in aliquots at −70° C. Immediately prior to use, frozen ACC1 or ACC2 aliquots are thawed, diluted to 500 μg/ml in buffer containing 50 mM HEPES, pH7.5, 1.0 mM MgCl2, 10 mM tripotassium citrate, 2.0 mM dithiothreitol (DTT), and 0.75 mg/ml fatty acid-free bovine serum albumin (BSA) and pre-incubated at 37° C. for 30 minutes.
[2] Measurement of ACC inhibition. The procedures for measuring ACC1 inhibition and ACC2 inhibition are identical except for the source of the isozyme. For measurement of ACC activity and assessment of ACC inhibition, test compounds are dissolved in dimethylsulfoxide (DMSO) and 1 μL aliquots are placed in 0.5 ml polypropylene tubes. Control tubes contain 1 μL of DMSO alone. Tubes are incubated at 37° C. in a constant temperature water bath. […] The reaction is then initiated by the addition of 10 μL of preincubated ACC fraction prepared as described above. After 7 minutes the reaction is terminated by the addition of 50 μL of 6N HCl and a 150 μL aliquot of the reaction mixture is transferred to glass scintillation vials and evaporated to dryness at 90° C. for at least 1 hour. The dried vials are then cooled, 0.5 ml of water and 5.5 ml of Ready Safe liquid scintillation fluid (Beckman Coulter Inc., Fullerton, Calif.) are added, and the radioactivity is determined using a liquid scintillation counter. Tubes that received HCl before ACC served as blanks.
[3] Specificity for ACC1 vs ACC2 inhibition. The specificity of a compound for Inhibiting ACC1 vs ACC2 can be determined by comparing the concentration of test compound required to inhibit 50% of the activity contained in an aliquot of ACC1 as compared with the concentration of the same compound required to inhibit 50% of the activity of an aliquot of ACC2.

[2] = test system: hepatic fatty acid synthesis; test: Measurement of fatty acid synthesis inhibition in experimental animals ([2-14C]acetate into saponifiable lipids in liver); assay type: in vivo, Sprague Dawley rats; conditions: Rattus norvegicus; for inhibition at 30 mg/kg: po, read-out: Percent Inhibition at 30 mg/kg
Description: The ACC inhibitory activity of compounds of this invention, and the salts of such compounds, can be confirmed in vivo by evaluation of their ability to inhibit hepatic fatty acid production and to stimulate whole body fatty acid oxidation using methods based on standard procedures. For example, since ACC catalyzes the first committed step in the biosynthesis of fatty acids, the in vivo activity of these compounds can be confirmed by measuring the ability of the compounds of this invention, and the salts of such compounds, to prevent the formation of radio labeled fatty acids from radio labeled acetate in the livers of treated mammals.
[1] Measurement of fatty acid synthesis inhibition in experimental animals. Incorporation of [2-^14C]acetate into saponifyable lipids in the livers of mammals (e.g. CDI mice, C57BI/6J-ob/ob mice, Sprague Dawley rats (available from Charles River Boston, Mass. or Jackson Labs Bar Harbor, Me.)) can be measured essentially as previously described for assessment of hepatic sterol synthesis (Harwood et al, Biochem. Pharmacol, 40: 1281-1293, 1990; Harwood et al. Biochem. Pharmacol. 53: 839-864, 1997) with the following modifications to allow for assessment fatty acid synthesis. For example, Sprague Dawley rats are administered a 0.1 ml per 40 g body weight of an oral bolus of vehicle (e.g. water or 0.5% methylcellulose in water)±test compound. One to four hours after compound administration, animals receive an intraperitoneal injection of 0.5 ml of [2-^14C]acetate (64 μCi/ml; 57 mCi/mmol). One hour after radiolabel administration, animals are sacrificed by CO2 asphyxiation and two, 0.75 g liver pieces are removed and saponified at […]. for 120 minutes in 1.5 ml of 2.5 M NaOH. After saponification, 2.5 ml of absolute EtOH are added to each sample and the solutions are mixed and allowed to stand overnight. Petroleum ether, 4.8 ml, is then added to each sample and the mixtures are first shaken vigorously for 2 minutes then centrifuged at 1000×g in a bench-top Sorvall®9 for 5 minutes. The resultant petroleum ether layers, which contain the nonsaponifyable lipids (e.g. cholesterol, post-squalene cholesterol precursors and other non-saponifiable lipids), are removed and discarded. The remaining aqueous layer (containing fatty acid sodium salts) is acidified to pH<2 by addition of 0.6 ml of 12 M HCl and extracted two times with 4.8 ml of petroleum ether. The pooled organic fractions (containing protonated fatty acids) are transferred to liquid scintillation vials, dried under nitrogen, dissolved in 7 ml of Aqua sol liquid scintillation fluid, and assessed for radioactivity using a liquid scintillation counter. Inhibition of fatty acid synthesis by the test compound is expressed as the concentration required to reduce by 50% the dpm [2-^14C]acetate incorporated into saponifiable lipids during the 1 hour interval between radio labeled acetate injection and CO2 asphyxiation.
Some compounds of the present were evaluated for inhibition of fatty acid synthesis as described above. As shown below, these compounds were all observed to inhibit the synthesis of fatty acids in vivo.

ACC1 from rat liver = molecular target: T2, ACC1 from rat liver (Rattus norvegicus, UniProt P11497); test: Direct inhibition of ACC1 activity (14C-bicarbonate incorporation); assay type: biochemical; conditions: ACC1 from rat liver
T2 construct: The livers (for ACC1 preparation) or skeletal muscle tissue (for ACC2 preparation) are removed; from tissue; host or cells: liver of male CD rats (fasted, then fed a high sucrose diet)
Summary of the method: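 ACC1 partially purified from livers of fasted/sucrose-refed male rats by PEG and ammonium sulfate fractionation, then preincubated 30 min at 37°C with 10 mM citrate and 1.0 mM MgCl2. Reaction ran 7 min at 37°C, stopped with HCl; acid-stable radioactivity counted by scintillation; HCl-first tubes served as blanks.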

Structure (SMILES)	pIC50 [1]	inhibition at 30 mg/kg [2] [%]	pIC50 (ACC1 from rat liver)	inhibition at 10 mg/kg ([2]; inhibition of fatty acid synthesis in vivo, 10 mg/kg, oral bolus, read-out: Percent Inhibition at 10 mg/kg) [%]
Cc1cc2c(cc1C)C(=O)CC1(CCN(C(=O)c3cc(C)c4[nH]ncc4c3)CC1)O2 [Ex. A1, 6,7-dimethyl-1′-[(7-methyl-1H-indazol-5-yl)carbonyl]spiro-[chromene-2,4′-piperidin]-4(3H)-one]	7.44	35.4	7.63	
COc1ccc2c(c1F)C(=O)CC1(CCN(C(=O)c3cc(C)c4[nH]ncc4c3)CC1)O2 [Ex. A9, 5-fluoro-6-methoxy-1′-[(7-methyl-1H-indazol-5-yl)carbonyl]spiro[chromene-2,4′-piperidin]-4(3H)-one]		33.5	7.43	
Cc1cc(C(=O)N2CCC3(CC2)CC(=O)c2cc(OC(F)(F)F)ccc2O3)cc2cn[nH]c12 [Ex. A12, 1′-[(7-methyl-1H-indazol-5-yl)carbonyl]-6-(trifluoromethoxy)spiro[chromene-2,4-piperidin]-4(3H)-one]		38.7	7.38	
Cc1cc2c(cc1Cl)C(=O)CC1(CCN(C(=O)c3cc(C)c4[nH]ncc4c3)CC1)O2 [Ex. A13, 6-chloro-7-methyl-1′-[(7-methyl-1H-indazol-5-yl)carbonyl]spiro[chromene-2,4′-piperidin]-4(3H)-one]		64	7.35	
COc1ccc2c(c1)C(=O)CC1(CCN(C(=O)c3cc(C)c4[nH]ncc4c3)CC1)O2 [Ex. A16, 6-methoxy-1′-[(7-methyl-1H-indazol-5-yl)carbonyl]spiro[chromene-2,4′-piperidin]-4(3H)-one]		83	7.26	68
Cc1cc(C(=O)N2CCC3(CC2)CC(=O)c2cc(Cl)c(F)cc2O3)cc2cn[nH]c12 [Ex. A21, 6-chloro-7-fluoro-1′-[(7-methyl-1H-indazol-5-yl)carbonyl]spiro[chromene-2,4′-piperidin]-4(3H)-one]		59.5	7.02	
Cc1cc2c(cc1C)C(=O)CC1(CCN(C(=O)c3ccc4[nH]ncc4c3)CC1)O2 [Ex. E1, 1′-(1H-indazol-5-ylcarbonyl)-6,7-dimethylspiro[chromene-2,4′-piperidin]-4(3H)-one]		30.9	7.02	
Cc1cc2c(cc1Cl)C(=O)CC1(CCN(C(=O)c3ccc4[nH]ncc4c3)CC1)O2 [Ex. E2, 6-chloro-1′-(1H-indazol-5-ylcarbonyl)-7-methylspiro[chromene-2,4′-piperidin]-4(3H)-one]		30.7	6.97	
